Patent publication US5770625A, “Butyryl-tyrosinyl spermine, analogs thereof and methods of preparing and using same” (priority 1994, dated 1998)
Where two headings read alike, the source gives them in different places.

Test system: postsynaptic QUIS-R of locust leg muscle
Test: Antagonism of neurally-evoked twitch contraction of locust retractor unguis nerve-muscle preparation
Design: species or system Schistocerca gregaria
Settings: for IC50: read-out: IC50
Description: Electrophysiological studies. The metathoracic retractor unguis nerve-muscle preparation of the locust Schistocerca gregaria was dissected and mounted in a small Perspex bath as described previously (21). The pharmacological activity on the locust nerve muscle preparation, using reduction in neurally evoked twitch amplitude as the measure of activity. Ten fractions were pharmacologically active. […] Further purification of this fraction by reverse-phase HPLC gave four peaks (FIG. 2B), the most pharmacologically was in the major peak (hatched FIG. 2B) . This fraction gave 1.1 mg of toxin as amorphous powder.
The retractor unguis muscle and its nerve were dissected from the metathoracic legs of adult, female locusts (Schistocerca gregaria) and mounted in a Perspex perfusion chamber as described by Usherwood and Machili (21) and Bateman, et al. (14). The muscle was stretched to maximal body length and attached at its tendon or apodeme to a Grass FT 10-strain gauge by a short length of nylon thread. The volume of the muscle bath was about 0.5 ml and its contents could be exchanged within 1 sec. The preparation was perfused continuously at the rate of 5-10 ml min^-1 (except during the application of toxin (see below)) with standard locust saline of the following composition (mM): NaCl, 180; KCl, 10; CaCl2, 2; Hepes, 10; buffered to pH 6.8. The retractor unguis muscle is innervated by two excitatory motoneurons (30) and an inhibitory motoneuron (19,32), but the influence of the latter on the responsiveness of the muscle is slight. Maximal stimulation of the retractor unguis nerve at 0.2 Hz produced a series of twitch contractions of constant amplitude, which were maintained for many hours in good preparations. The test compounds were kept at -20° C. They were dissolved in locust saline on the day of the assay and tested at room temperature. The compounds were applied by pipette to a nerve-muscle preparation such that the contents of the perfusion bath were completely replaced by the test solution. Exposure to the test compound lasted 20 min. Because of the limited availability of some of the compounds, the preparation was not perfused during this period. However, the amplitude of the retractor unguis muscle twitch rarely changed by more than 5-10% over a 20 minute period. During application of the test solutions the stimulation frequency was raised to 0.6 Hz for brief periods to test for stimulus frequency-dependent effects on twitch amplitude (31,37). Dose-inhibition data were obtained by testing the effects, on single retractor unguis muscle preparations, of a range of concentrations of the test compounds. Each concentration of the respective samples was tested at least thee times, and each compound was assayed usually over a 100-fold concentration range (a total of 7-10 concentrations). The standard deviations for twitch inhibition for any given concentration of a toxin rarely exceed 10%. Those compounds for which the deviation was greater than this are identified in Tables 1-7. There was some variation in the potency of PhTX-343 and the test compounds between nerve-muscle preparations. In order to compensate for this, the following procedure was adopted: PhTX-343 was assayed at a variety of concentrations on eight retractor unguis nerve-muscle preparations to give a cumulative dose-inhibition relationship for this toxin. The concentration of PhTX-343 which reduced the twitch contraction by 50% (IC50) was then determined by fitting a curve to the data using the following equation: [formula] where: [T]= toxin concentration, I= % inhibition, Imax =maximum inhibition= 100% and n' represents the Hill slope coefficient. […] The ratio of the actual reduction in twitch amplitude obtained with this single concentration of PhTX-343 and the 50% reduction that was anticipated from the cumulative dose-inhibition relationship for this toxin, was then used as a factor to normalize the data for the test compound. […]

[1] = Table 2, region B modifications, * SD < 20%
[2] = Table 2, relative to PhTX-343 = 1.0
[3] = Table 3, region C modifications
[4] = Table 3, relative to PhTX-343 = 1.0
[5] = Table 6, bis analogues of PhTX-343
[6] = Table 1, region A modifications, 20 min exposure, normalized with PhTX-343, ** SD < 30%
[7] = Table 1, relative to PhTX-343 = 1.0
[8] = Table 7, bis-acyl spermine analogues
[9] = Table 7, bis-acyl spermine analogues, relative to PhTX-343
[10] = Table 4, terminal amino group modifications, * SD < 20%
[11] = Table 4, relative to PhTX-343 = 1.0

CCCC(=O)N[C@@H](Cc1ccc(O)cc1)C(=O)NCCCCNCCCN [Compound 4, PhTX-43]
potency compared with PhTX-343 or other analogues (in words): reduced potency

CCCC(=O)N[C@@H](Cc1ccc(OCc2ccccc2)cc1)C(=O)NCCCNCCCCNCCCN [drawing 34]
IC50 [1]: 24 µM | Relative Potency [2]: 1.0

[N-]=[N+]=Nc1ccc(C(=O)N[C@@H](Cc2cc(I)c(O)c(I)c2)C(=O)NCCCNCCCCNCCCNC(=O)[C@@H](N)CCCCN)cc1 [drawing 68]
IC50 (Table 5, modifications to more than one region): 1.8 µM | Relative Potency (Table 5, relative to PhTX-343): 13

CC(=O)N[C@@H](Cc1ccc(O)cc1)C(=O)NCCCNCCCCNCCCN [drawing 42]
IC50 [3]: 50 µM | Relative Potency [4]: 0.7

CCCCCCCCCC(=O)N[C@@H](Cc1ccc(O)cc1)C(=O)NCCCNCCCCNCCCN [Compound 20, C10-PhTX-343]
potency compared with PhTX-343 or other analogues (in words): successive increases in potency | IC50 [3]: 1.4 µM | Relative Potency [4]: 16.0

CCCCCCC(=O)N[C@@H](Cc1ccc(O)cc1)C(=O)NCCCNCCCCNCCCN [Compound 19]
potency compared with PhTX-343 or other analogues (in words): successive increases in potency

CCCCCCCCCC(=O)N[C@@H](Cc1ccc(O)cc1)C(=O)NCCCNCCCCNCCCNC(=O)[C@H](Cc1ccc(O)cc1)NC(=O)CCCCCCCCC
IC50 (M) [5]: insol.

CCCC(=O)N[C@@H](Cc1ccc(O)cc1)C(=O)NCCCNCCCCNCCCNC(C)=O [Compound 32]
potency compared with PhTX-343 or other analogues (in words): low potency

NCCCNCCCCNCCCNC(=O)[C@H](Cc1ccc(O)cc1)NC(=O)CCCCC1SCC2NC(=O)NC21 (some centres unmarked) [Compound 30]
IC50 (M) [3]: insol.

NCCCNCCCCNCCCNC(=O)[C@H](Cc1ccc(O)cc1)NC(=O)/C=C/c1ccccc1 [drawing 49]
IC50 [3]: 2 µM | Relative Potency [4]: 12.0

CCCC(=O)N[C@@H](Cc1ccc(OC(C)=O)cc1)C(=O)NCCCNCCCCNCCCN [drawing 33]
IC50 [1]: 33 µM | Relative Potency [2]: 0.7

CCCC(=O)N[C@@H](Cc1ccc(O)cc1)C(=O)NCCCNCCCCNCCCNC(=O)C(N)CCCCNC(=O)C(N)CCCCN (some centres unmarked) [Compound 37]
potency compared with PhTX-343 or other analogues (in words): more active than compound 35

NCCCNCCCCNCCCNC(=O)[C@H](Cc1ccc(O)cc1)NC(=O)c1ccccc1 [drawing 47]
IC50 [3]: 2.83 µM | Relative Potency [4]: 8.2

CCCC(=O)N[C@@H](Cc1ccc(O)cc1)C(=O)NCCCCN [drawing 25]
IC50 [6]: 2000 µM | Relative Potency [7]: 0.01

CCCC(=O)N[C@@H](Cc1ccc(O)cc1)C(=O)NCCCNCCCNCCCCN [Compound 3, PhTX-334]
potency compared with natural PhTX-433 (in words): higher potency than the natural PhTX-433 toxin | physiological activity relative to that of PhTX-433, by locust muscle twitch inhibition concentration (PhTX-433 = 100%): 125% | effect on the neurally-evoked twitch contraction (in words) (toxin 1-10 μM): influenced the twitch contraction in the same qualitative fashion as PhTX-433

CCCCCCCCCC(=O)NCCCNCCCCNCCCNC(=O)CCCCCCCCC [drawing 82]
IC50 [8]: 23 µM | Relative Potency [9]: 1.0

CCCC(=O)N[C@@H](Cc1ccc(O)cc1)C(=O)NCCCNCCCCNCCCNC(C)=O [drawing 58]
IC50 [10]: 300 µM | Relative Potency [11]: 0.08

CCCC(=O)N[C@@H](Cc1ccc(O)cc1)C(=O)NCCC[N+](C)(C)CCCC[N+](C)(C)CCC[N+](C)(C)C [Compound 9]
potency compared with PhTX-343 or other analogues (in words): reduced potency compared with PhTX-343

CCCC(=O)N[C@@H](Cc1cc(I)c(O)c(I)c1)C(=O)NCCCNCCCCNCCCNC(=O)[C@@H](N)CCCNC(=N)N [Compound 39, diiodo-PhTX-arginine]
potency compared with PhTX-343 or other analogues (in words): more potent than PhTX-343

CCCC(=O)N[C@@H](Cc1ccc(O)cc1)C(N)=O [Compound 6, PhTX-0]
potency compared with PhTX-343 or other analogues (in words): slightly more active than PhTX-4

CCCCCCC(=O)NCCCNCCCCNCCCN [Compound 48, Heptanoylspermine-amide]
potency compared with PhTX-343 or other analogues (in words): low potencies

[N-]=[N+]=Nc1ccc(C(=O)N[C@@H](Cc2ccc(O)cc2)C(=O)NCCCNCCCCNCCCN)cc1 [Compound 26]
potency compared with PhTX-343 or other analogues (in words): reasonably active

CCCC(=O)N[C@@H](Cc1ccc(O)cc1)C(=O)NCCCCNCCCN [drawing 24]
IC50 [6]: 39 µM | Relative Potency [7]: 0.6

CCCCCCC(=O)N[C@@H](Cc1ccc(O)cc1)C(=O)NCCCNCCCCNCCCNC(=O)[C@H](Cc1ccc(O)cc1)NC(=O)CCCCCC
IC50 (M) [5]: insol.

O=C(N[C@@H](Cc1ccc(O)cc1)C(=O)NCCCNCCCCNCCCNC(=O)[C@H](Cc1ccc(O)cc1)NC(=O)c1ccccc1)c1ccccc1
IC50 [5]: 110 µM | Relative Potency (Table 6, relative to PhTX-343): 0.2

NCCCNCCCCNCCCNC(=O)[C@H](Cc1ccc(O)cc1)NC(=O)C1CCCCC1 [drawing 46]
IC50 [3]: 9.3 µM | Relative Potency [4]: 2.5

CCCCCCCCCC(=O)NCCCNCCCCNCCCN [drawing 78]
IC50 (Table 7, mono-acyl spermine analogues): 10 µM | Relative Potency (Table 7, mono-acyl spermine analogues, relative to PhTX-343): 2.3

[N-]=[N+]=C(C(=O)NCCCC(=O)N[C@@H](Cc1ccc(O)cc1)C(=O)NCCCNCCCCNCCCN)C(F)(F)F [Compound 27]
potency compared with PhTX-343 or other analogues (in words): only weakly active

CCCCCCC(=O)N[C@@H](Cc1ccc(O)cc1)C(=O)NCCCNCCCCNCCCN [drawing 43]
IC50 [3]: 10 µM | Relative Potency [4]: 2.7

CCCC(=O)N[C@@H](Cc1cc(I)c(O)c(I)c1)C(=O)NCCCNCCCCNCCCN [drawing 35]
IC50 [1]: 5.3 µM | Relative Potency [2]: 4.4

CCCC(=O)N[C@@H](Cc1ccc(O)cc1)C(=O)NCCCNCCCCNCCCNC(=O)CCCN [Compound 34]
potency compared with PhTX-343 or other analogues (in words): potency was reduced

CCCC(=O)N[C@@H](C)C(=O)NCCCNCCCCNCCCN [drawing 37]
IC50 [1]: 45 µM | Relative Potency [2]: 0.5

CCCC(=O)N[C@@H](C)C(=O)NCCCNCCCCNCCCN [Compound 15]
potency compared with PhTX-343 or other analogues (in words): slightly reduced

CCCC(=O)N[C@@H](Cc1ccc(O)cc1)C(=O)NCCCCN [Compound 5, PhTX-4]
potency compared with PhTX-343 or other analogues (in words): reduced potency

CCCC(=O)NCCCNCCCCNCCCNC(=O)CCC [Compound 50]
potency compared with PhTX-343 or other analogues (in words): low potencies | IC50 [8]: 2300 µM | Relative Potency [9]: 0.1

CCCCC(CNCCCN)CNCCCCNC(=O)[C@H](Cc1ccc(O)cc1)NC(=O)CCC (some centres unmarked) [Compound 8, PhTX-(butyl)433]
potency compared with PhTX-343 or other analogues (in words): increased potency by almost six-fold

CCCC(=O)N[C@@H](Cc1ccc(O)cc1)C(=O)NCCCNCCCCNCCCN [drawing 21]
IC50 [6]: 23 µM | Relative Potency [7]: 1.0

CCCC(=O)N[C@@H](Cc1ccc(O)cc1)C(=O)NCCCNCCCCNCCCNC(=O)CN [drawing 59]
IC50 [10]: 100 µM | Relative Potency [11]: 0.2

CCCC(=O)N[C@@H](CC(C)C)C(=O)NCCCNCCCCNCCCN [Compound 14]
potency compared with PhTX-343 or other analogues (in words): unchanged

CCCC(=O)N[C@@H](Cc1ccc(O)cc1)C(=O)NCCCCNCC(C)CNCCCN (some centres unmarked) [Compound 7]
potency compared with PhTX-343 or other analogues (in words): did not greatly alter potency

CCCC(=O)N[C@@H](Cc1ccc(OC(C)=O)cc1)C(=O)NCCCNCCCCNCCCN [Compound 11]
potency compared with PhTX-343 or other analogues (in words): unchanged potencies

CCCC(=O)N[C@@H](Cc1ccccc1)C(=O)NCCCNCCCCNCCCN [Compound 10]
potency compared with PhTX-343 or other analogues (in words): increased potency about three-fold | IC50 [1]: 6.7 µM | Relative Potency [2]: 3.4
